Results published in PubChem BioAssay (NCI).
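Five concentrations, 48 hours, 96-well plates. TGI: concentration producing complete growth inhibition.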

Columns and labels:
Experiment in all cases: growth of human tumour cells (NCI), 48 h
[1] = tested on: LOX IMVI melanoma
[2] = tested on: SN12C renal
[3] = tested on: SK-OV-3 ovarian
[4] = tested on: SK-MEL-2 melanoma
[5] = tested on: A549 NSCLC
[6] = tested on: SF-295 CNS
[7] = tested on: SF-268 CNS
[8] = tested on: HOP-18 NSCLC
[9] = tested on: UACC-62 melanoma
[10] = tested on: KM20L2 colon
[11] = tested on: A498 renal
[12] = tested on: 786-0 renal
[13] = tested on: NCI-H226 lung
[14] = tested on: M14 melanoma
[15] = tested on: IGROV1 ovarian
[16] = tested on: HCT-15 colon
[17] = tested on: SR leukemia
[18] = tested on: SK-MEL-5 melanoma
[19] = tested on: UACC-257 melanoma
[20] = tested on: HT29 colon
[21] = tested on: NCI-H460 lung
[22] = tested on: SW-620 colon
[23] = tested on: COLO 205 colon
[24] = tested on: SNB-78 CNS
[25] = tested on: NCI-H522 lung
[26] = tested on: HOP-92 NSCLC
[27] = tested on: SNB-19 CNS
[28] = tested on: CAKI-1 renal
[29] = tested on: RPMI-8226 leukemia
[30] = tested on: CCRF-CEM leukemia
[31] = tested on: HCT-116 colon
[32] = tested on: K-562 leukemia
[33] = tested on: SF-539 CNS
[34] = tested on: OVCAR-4 ovarian
[35] = tested on: SNB-75 CNS
[36] = tested on: LXFL 529 NSCLC
[37] = tested on: DLD-1 colon
[38] = tested on: HL-60(TB) leukemia
[39] = tested on: KM12 colon
[40] = tested on: OVCAR-5 ovarian
[41] = tested on: SK-MEL-28 melanoma
[42] = tested on: MOLT-4 leukemia
[43] = tested on: ACHN renal
[44] = tested on: TK-10 renal
[45] = tested on: HOP-62 NSCLC
[46] = tested on: U251 CNS
[47] = tested on: M19-MEL melanoma
[48] = tested on: NCI-H23 lung
[49] = tested on: OVCAR-8 ovarian
[50] = tested on: OVCAR-3 ovarian
[51] = tested on: UO-31 renal
[52] = tested on: MALME-3M melanoma

Measured: TGI

COc1ccc(NC(=O)CC(=O)NN2C(=O)/C(=C/c3ccc(N(CCC#N)CCC#N)cc3C)N=C2/C=C\c2ccccc2)cc1
> 100 µM: all assays above
